Measurements taken from US8293743B2, “Substituted imidazo[1,2-A]pyrazine derivatives as alpha-helix mimetics and method relating to the treatment of cancer stem cells” (Choongwae Pharma Corporation, priority 2005, dated 2012).
“Also recorded” adds a separate entry of the source.

Key:
MES-SA/Dx5 cells = test: Cell proliferation/viability of MES-SA/Dx5 cells, Doxorubicin +/- ICG-001; format: cell-based, human; details: in combination with Doxorubicin
Description: (§1) MDR transporters are believed to play important roles in protecting cancer stem cells from chemotherapy (Dean et al, Nat. Rev. Cancer 5, 275, 2005). To further study this phenomenon, a series of experiments was performed.

B16 = test: Colony inhibition assay, B16 melanoma; format: cell-based, mouse; details: B16, 80 cells/well
Description: (§2) Colony inhibition assays were performed, in which plated cells from A2780, CP70, IGROV-1 and B16 cells were exposed to doses of ICG-001 within the range of 0.625 to 10 μM. An exemplary experiment is illustrated in Table 3.
(§3) Table 4 presents data on the plating efficiencies of cultured cells from A2780, CP70, IGROV-1 and B16 in control wells as well as in wells exposed to ICG-001.

MDR-1 [1] = test: MDR-1/luciferase reporter activity in MES-SA/Dx5 cells; format: cell-based, human; details: read-out: IC50, reduction of MDR-1 luciferase activity
Text: (§4) To investigate differential coactivator usage for the transcriptional regulation of the MDR-1 gene in MES-SA cells, the chemogenomic tool ICG-001 was used (Emami et al. 2004).

A2780 = test: Colony inhibition assay, A2780; format: cell-based; details: for Average plating efficiency: A2780, 80 cells/well
Description: as §2, §3
(§5) The cells were tested at range of concentrations of ICG-001 between 0.625 and 10 μM and at cisplatin concentrations between 1.25 to 20 μM. All three ovarian cancer lines tested (A2780, CP70 and IGROV-1) were more sensitive to ICG-001 than to cisplatin. […] The cisplatin-sensitive lines, IGROV-1 and A2780, had similar sensitivity to ICG-001 as to cisplatin (FIGS. 23A and B).

IGROV-1/CP = test: Colony inhibition assay, IGROV-1/CP; format: cell-based; details: 80 cells/well
MDR-1 promoter = test: ChIP assay of coactivator occupancy of the MDR-1 promoter in MES-SA/Dx5 cells; format: cell-based, human
Text: Similar ICG-001 induced p300 recruitment at the survivin promoter has been previously observed, which was associated with recruitment of proteins associated with transcriptional repression (i.e., HDAC6 and PML) (H Ma et al. Oncogene 2005). A proposed non-binding mechanism is repressive transcriptional apparatus recruitment to the MDR-1 promoter by p300.

CP70 = test: Colony inhibition assay, CP70; format: cell-based; details: for Average plating efficiency: CP70, 80 cells/well
Description: as §2, §3, §5

[2] = system: K562 imatinib resistant cells; test: Cell proliferation/viability of K562 imatinib resistant cells, Imatinib mesylate +/- ICG-001; format: cell-based; details: in combination with Imatinib mesylate
Description: as §1

MDR-1 [3] = test: MDR-1/luciferase activity in isogenic HCT116 cell lines; format: cell-based
Text: To further confirm the importance of the role of nuclear β-catenin in driving MDR-1 expression, isogenic HCT-116 cell lines were utilized (Waldmann 2002).
MDR-1 transcriptional regulation in the isogenic HCT116 cell lines was also investigated. […] Transfection of p300 decreased MDR-1/luciferase activity below control levels in all 3 cell lines (FIG. 17A).

caspase3/7 = test: Caspase3/7 activation in MES-SA/Dx5 cells; format: cell-based, human; details: added to cells treated with 1 mg/ml or 5 mg/ml of Doxorubicin
Description: as §1

K562 cells = test: Differentiation and caspase activation in K562 cells; format: cell-based
MDR-1 [4] = test: MDR-1 protein expression in MES-SA/Dx5 cells (immunofluorescence, immunoblotting); format: cell-based, human; details: immunofluorescence and immunoblotting, dose dependent
Text: as §4

IGROV-1 = test: Colony inhibition assay, IGROV-1; format: cell-based; details: IGROV-1, 80 cells/well
Description: as §2, §3, §5

normal CD34+ cells = test: Effect on normal CD34+ hematopoietic cells (cellularity, colony formation); format: cell-based
Text: This is the result of the emergence of leukemic drug resistant clones associated with increased nuclear β-catenin levels, a hallmark of increased TCF/β-catenin transcription (Weissman NEJM 2003). […] In sharp contrast, the control colonies were large and compact.

CBP-β-catenin = target: T1, CBP-β-catenin (Homo sapiens, UniProt Q92793); test: TOPFlash reporter system in SW480 cells (CBP-β-catenin binding); format: cell-based; details: increasing concentrations
T1 construct: tested using the TOPFlash reporter system in SW480 cells; endogenous in cells; host or cells: SW480 cells
Description: The effect of several compounds on CBP-β-catenin binding was tested using the TOPFlash reporter system in SW480 cells.

CD34+ CML blasts = test: Colony formation (CFU) of CD34+ blasts from bone marrow of CML patients; format: cell-based; details: for total colony forming units (CFU): combination ICG-001 and imatinib vs control or either drug alone

T1 sequence (Q92793 whole entry): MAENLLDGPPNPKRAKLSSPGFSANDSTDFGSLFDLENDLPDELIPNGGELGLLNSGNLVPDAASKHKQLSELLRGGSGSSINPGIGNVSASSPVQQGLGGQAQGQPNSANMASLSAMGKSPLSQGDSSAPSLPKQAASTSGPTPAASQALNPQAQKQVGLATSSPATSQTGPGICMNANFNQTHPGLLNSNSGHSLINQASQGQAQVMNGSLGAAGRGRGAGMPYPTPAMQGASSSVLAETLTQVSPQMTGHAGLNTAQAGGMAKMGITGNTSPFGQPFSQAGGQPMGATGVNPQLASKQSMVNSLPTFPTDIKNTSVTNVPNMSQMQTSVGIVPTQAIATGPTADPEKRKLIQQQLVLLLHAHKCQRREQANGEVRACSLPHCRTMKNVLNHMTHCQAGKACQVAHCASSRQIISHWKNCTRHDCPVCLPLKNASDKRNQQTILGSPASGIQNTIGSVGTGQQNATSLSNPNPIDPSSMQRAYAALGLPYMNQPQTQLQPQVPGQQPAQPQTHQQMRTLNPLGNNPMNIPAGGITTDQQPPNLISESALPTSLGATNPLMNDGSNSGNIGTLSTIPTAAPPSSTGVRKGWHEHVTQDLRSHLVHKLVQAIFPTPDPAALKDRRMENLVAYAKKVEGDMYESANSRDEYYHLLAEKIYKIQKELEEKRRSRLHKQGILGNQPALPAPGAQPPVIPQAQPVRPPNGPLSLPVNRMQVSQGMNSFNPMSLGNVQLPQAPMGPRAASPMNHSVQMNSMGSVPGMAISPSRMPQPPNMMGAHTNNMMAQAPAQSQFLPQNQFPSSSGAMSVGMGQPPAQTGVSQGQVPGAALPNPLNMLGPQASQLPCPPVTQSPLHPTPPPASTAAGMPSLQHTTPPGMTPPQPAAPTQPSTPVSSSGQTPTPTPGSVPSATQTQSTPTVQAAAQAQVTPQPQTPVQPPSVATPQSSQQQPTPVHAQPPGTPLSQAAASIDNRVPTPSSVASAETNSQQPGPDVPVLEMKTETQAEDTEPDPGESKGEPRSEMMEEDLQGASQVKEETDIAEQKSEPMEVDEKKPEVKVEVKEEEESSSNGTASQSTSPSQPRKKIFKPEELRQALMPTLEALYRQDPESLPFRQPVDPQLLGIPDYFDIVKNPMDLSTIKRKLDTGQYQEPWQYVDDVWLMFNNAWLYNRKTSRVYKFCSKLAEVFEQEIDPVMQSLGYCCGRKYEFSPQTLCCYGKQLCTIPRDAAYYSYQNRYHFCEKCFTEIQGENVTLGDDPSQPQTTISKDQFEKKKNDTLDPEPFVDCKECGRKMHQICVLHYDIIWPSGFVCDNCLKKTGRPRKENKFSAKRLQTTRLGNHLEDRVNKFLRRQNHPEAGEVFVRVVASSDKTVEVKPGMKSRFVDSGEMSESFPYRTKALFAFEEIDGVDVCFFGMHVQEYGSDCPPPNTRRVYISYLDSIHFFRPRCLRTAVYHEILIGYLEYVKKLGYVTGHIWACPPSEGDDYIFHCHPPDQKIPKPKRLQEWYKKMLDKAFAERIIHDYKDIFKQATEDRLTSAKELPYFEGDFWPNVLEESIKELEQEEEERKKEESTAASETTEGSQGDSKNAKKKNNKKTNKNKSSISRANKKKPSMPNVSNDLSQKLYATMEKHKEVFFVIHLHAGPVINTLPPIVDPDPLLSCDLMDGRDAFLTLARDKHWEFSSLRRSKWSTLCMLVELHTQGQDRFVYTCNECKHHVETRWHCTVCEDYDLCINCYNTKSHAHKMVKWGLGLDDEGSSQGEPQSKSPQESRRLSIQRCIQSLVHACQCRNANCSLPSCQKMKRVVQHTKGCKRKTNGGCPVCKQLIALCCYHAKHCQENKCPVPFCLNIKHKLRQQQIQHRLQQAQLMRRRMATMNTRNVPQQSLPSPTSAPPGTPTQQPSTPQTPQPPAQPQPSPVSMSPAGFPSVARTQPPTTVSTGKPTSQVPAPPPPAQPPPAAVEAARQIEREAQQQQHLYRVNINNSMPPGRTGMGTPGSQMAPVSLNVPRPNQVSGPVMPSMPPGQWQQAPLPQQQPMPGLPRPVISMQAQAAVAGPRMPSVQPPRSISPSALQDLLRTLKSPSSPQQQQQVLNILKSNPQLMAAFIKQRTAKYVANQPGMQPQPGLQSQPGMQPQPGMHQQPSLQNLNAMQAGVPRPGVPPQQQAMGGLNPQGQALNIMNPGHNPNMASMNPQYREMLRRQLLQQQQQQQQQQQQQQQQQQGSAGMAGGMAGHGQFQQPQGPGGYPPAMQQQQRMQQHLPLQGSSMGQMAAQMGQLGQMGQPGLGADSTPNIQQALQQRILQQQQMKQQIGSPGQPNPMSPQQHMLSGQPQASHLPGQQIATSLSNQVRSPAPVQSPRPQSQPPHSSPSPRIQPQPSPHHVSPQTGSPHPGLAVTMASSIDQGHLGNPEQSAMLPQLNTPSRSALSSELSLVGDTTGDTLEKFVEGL

## O=C1[C@H](Cc2ccc(O)cc2)N2C(=O)CCN(C(=O)NCc3ccccc3)[C@H]2CN1Cc1cccc2ccccc12 [ICG-001]
MES-SA/Dx5 cells
  decrease of cell proliferation/viability, combination vs either agent alone: significantly more effective
B16; 0.625 μM
  Average plating efficiency: 24%
B16; 1.25 μM
  Average plating efficiency: 18%
B16; 2.5 μM
  Average plating efficiency: 3%
B16; 5 μM
  Average plating efficiency: 0%
B16; 10 μM
  Average plating efficiency: 0%
MDR-1 [1]
  IC50: ~16 µM
A2780; 0.625 μM ICG-001
  COLONIES (n = 4) M +/− SD: 74 +/− 4.7
A2780; 1.25 μM ICG-001
  COLONIES (n = 4) M +/− SD: 28 +/− 13.2
A2780; 2.5 μM ICG-001
  COLONIES (n = 4) M +/− SD: 0.25 +/− 0.5
A2780; 5 μM ICG-001
  COLONIES (n = 4) M +/− SD: 0
A2780; 10 μM ICG-001
  COLONIES (n = 4) M +/− SD: 0
A2780; 0.625 μM
  Average plating efficiency: 25%
A2780; 1.25 μM
  Average plating efficiency: 35%
A2780; 2.5 μM
  Average plating efficiency: 6%
A2780; 5 μM
  Average plating efficiency: 0%
A2780; 10 μM
  Average plating efficiency: 0%
IGROV-1/CP; 0.625 μM
  Average plating efficiency: 59%
IGROV-1/CP; 1.25 μM
  Average plating efficiency: 25%
IGROV-1/CP; 2.5 μM
  Average plating efficiency: 13%
IGROV-1/CP; 5 μM
  Average plating efficiency: 6%
IGROV-1/CP; 10 μM
  Average plating efficiency: 0%
MDR-1 promoter
  occupancy of the MDR-1 promoter by CBP: blocked in a dose dependent fashion
MDR-1 promoter; 25 uM ICG-001
  occupancy of the MDR-1 promoter by p300: occupancy increased
CP70; 0.625 μM
  Average plating efficiency: 35%
CP70; 1.25 μM
  Average plating efficiency: 35%
CP70; 2.5 μM
  Average plating efficiency: 13%
CP70; 5 μM
  Average plating efficiency: 1%
CP70; 10 μM
  Average plating efficiency: 0%
CP70; cisplatin-resistant line CP70, 5 μM
  inhibition: > 90%
[2]
  decrease of cell proliferation/viability, combination vs either agent alone: significantly more effective
MDR-1 [3]; HCT-116 wild type
  MDR-1/luciferase activity: dose dependently decreased
MDR-1 [3]; Hβ18(ko/*) cell line
  MDR-1/luciferase activity: dose dependently decreased
MDR-1 [3]; Hβ92(wt/ko) cells
  MDR-1/luciferase activity: essentially no further reduction below basal levels
caspase3/7
  caspase3/7 activation: increased caspase3/7 activation significantly
K562 cells
  caspase activation: not capase activation
  differentiation: induced differentiation
MDR-1 [4]
  level of MDR-1 protein expression: significantly reduced
IGROV-1; 0.625 μM
  Average plating efficiency: 31%
IGROV-1; 1.25 μM
  Average plating efficiency: 24%
IGROV-1; 2.5 μM
  Average plating efficiency: 8%
IGROV-1; 5 μM
  Average plating efficiency: 1%
IGROV-1; 10 μM
  Average plating efficiency: 0%
Normal CD34+ cells
  colony formation of normal CD34+ hematopoietic cells: did not affect colony formation
  total cellularity, CFU-Es and BFU-Es: minimal effects
Normal CD34+ cells; up to 20 μM
  adverse effects on normal CD34+ cells: did not have significant adverse effects
CBP-β-catenin; listed as ICG-100
  effect on CBP-β-catenin binding (TOPFlash reporter): inhibited
CD34+ CML blasts
  total colony forming units (CFU): most significant reduction
CD34+ CML blasts; listed as IGC-001
  total colony forming units (CFU): significant additive effect

## O=C1[C@H](Cc2ccc(O)cc2)N2C(=O)CCN(C(=O)NCc3ccccc3)[C@H]2CN1Cc1cccc2ccccc12 [PRI-004]
CBP-β-catenin
  effect on CBP-β-catenin binding (TOPFlash reporter): effective; also recorded: inhibited
CD34+ CML blasts; 500 nM, FIG. 21C legend
  colony formation: completely blocks colony formation
